Counter-ions that a name gives are not always drawn.
Key:
Assay type in all cases: cell-based
Settings in all cases: 33° C., 4 days
[1] = system: Escherichia coli H-9342; assay: Comparative test of growth on agar plate medium containing primaquine or novobiocin, mutant strain H-9342
Protocol: (§1) Preparation of an L-histidine-producing mutant strain having resistance to a DNA gyrase inhibitor or an L-histidine-producing mutant strain having both resistance to a DNA gyrase inhibitor and resistance to an aminoquinoline derivative The L-histidine-producing mutant strain H-9340 having resistance to 1,2,4-triazole alanine, which was derived from methionine-requiring Escherichia coli ATCC 21318 was subjected to a mutation treatment with N-methyl-N′-nitro-N-nitrosoguanidine (NTG) (0.2 mg/ml, 30° C., 30 minutes) according to a conventional method and spread on a 1 g/liter noboviocin monosodium salt-containing agar plate medium [0.2% glucose, 0.3% potassium dihydrogen phosphate, 0.6% disodium hydrogen phosphate, 0.01% magnesium sulfate, 0.05% sodium chloride, 0.1% ammonium chloride, 50 mg/liter required nutrient (DL-methionine) and 1.5% agar, pH 7.2].
The mutant strain was cultured on the agar plate medium at 30° C. for 2 to 6 days, and the growing large colonies were picked up and separated to obtain the strain H-9342.
(§2) Comparative test of growth on agar plate culture medium containing primaquine or novobiocin
(§3) The growth of the mutant strains H-9342 and H-9343 obtained in Example 1 was compared with the growth of the parent strain H-9340 on an agar plate medium containing primaquine or novobiocin.
(§4) Each of the mutant strains, which had been cultured in a natural medium for 24 hours and suspended in physiological saline, was spread at a cell density of 1 to 10 cells/cm^2 on the agar plate medium containing primaquine disodium salt or novobiocin monosodium salt at the same concentration as that at the time of acquisition of each mutant strain, and cultured at 33° C. for 4 days.

[2] = system: Escherichia coli H-9340; assay: Comparative test of growth on agar plate medium containing primaquine or novobiocin, parent strain H-9340
Protocol: as §1, §2
The growth of the mutant strains H-9342 and H-9343 obtained in Example 1 was compared with the growth of the parent strain H-9340 on an agar plate medium containing primaquine or novobiocin. […]

[3] = system: Escherichia coli H-9343; assay: Comparative test of growth on agar plate medium containing primaquine or novobiocin, mutant strain H-9343
Protocol: Furthermore, the obtained colony was subjected to a mutation treatment with NTG (0.2 mg/ml, 30° C., 30 minutes), followed by spreading on an agar plate culture medium containing 150 mg/liter primaquine disodium salt. Culturing was carried out thereon at 30° C. for 2 to 6 days, and growing large colonies were picked up and separated to obtain the strain H-9343. The strains H-9340, H-9342 and H-9343 were deposited on March 9, 1999 with the National Institute of Bioscience and Human-Technology, Agency of Industrial Science and Technology (1-3, Higashi 1-chome, Tsukuba-shi, Ibaraki-ken, Japan) under the Budapest Treaty with accession Nos. FERM BP-6673, FERM BP-6675 and FERM BP-6676, respectively.
as §2, §3, §4

[4] = 1 g/liter novobiocin monosodium salt in agar medium
[5] = 150 mg/liter primaquine disodium salt in agar medium

SMILES: CO[C@@H]1[C@@H](OC(N)=O)[C@@H](O)[C@H](Oc2ccc3c(O)c(NC(=O)c4ccc(O)c(CC=C(C)C)c4)c(=O)oc3c2C)OC1(C)C [Novobiocin monosodium salt, novobiocin monosodium salt]
- Growth or non-growth on agar plate medium [1, 4]: +
- Growth or non-growth on agar plate medium [2, 4]: −
- Growth or non-growth on agar plate medium [3, 4]: +

SMILES: COc1cc(NC(C)CCCN)c2ncccc2c1 (stereo not shown) [Primaquine disodium salt, primaquine disodium salt]
- Growth or non-growth on agar plate medium [1, 5]: −
- Growth on the primaquine-containing culture medium (in words) ([1]; primaquine-containing agar medium): did not grow
- Growth or non-growth on agar plate medium [2, 5]: −
- Growth or non-growth on agar plate medium [3, 5]: +

— patent US6706517B2, “Method for producing L-amino acids by fermentation” (priority 1999, dated 2004)
